According to US12319681B2, “Tripartite androgen receptor eliminators, methods and uses thereof” (SPG Therapeutics, Inc., priority 2017, dated 2025):
Where two headings read alike, the source gives them in different places.

Tests used:
androgen receptor (AR) [1] = target: T1, androgen receptor (AR) (Homo sapiens, UniProt P10275); test: MDA-kb2 AR luciferase reporter gene assay (1.0 nM DHT); assay type: cell-based; conditions: MDA-kb2, 24 h, read-out: Gene Activity Reduction
Protocol: This example illustrates how to determine the inhibitory activity of an ARE disclosed herein using a cell-based androgen receptor transcriptional reporter assay using an engineered cell line.
(§1) Each ARE tested was prepared in DMSO. […] Ethanol concentrations in media never exceeded 0.1%.
(§2) To assess ARE-mediated inhibition, an AR luciferase assay was performed. After washing cells with 1×PBS, 20 μL lysis buffer (25 mM Tris/phosphate, 4 mM EGTA, 1% Triton, 10% glycerol, 2 mM DTT) was added per well, incubated for 5 minutes with gentle shaking and store at −80° C. On the day of assay, the plates were thawed to ambient temperature and 80 μL of assay buffer (25 mM glycylglycine, 15 mM MgCl2. 5 mM ATP, 0.1 mg/ml BSA) was added to each well. Plates are then processed on a microplate reader (POLARstar Omega) by injecting 100 μL of 1 mM D-luciferin per well, followed by chemiluminescence measurement of 3 seconds at onset of injection. Luciferase activity was determined, measured, and normalized to Relative Light Units (RLU). AR reporter gene activity reduction values were calculated as follows: AR reporter gene activity=1−(average signal (treatment group)/average signal (treatment group without drug).

androgen receptor (AR) [2] = target: T2, androgen receptor (AR) (Homo sapiens, UniProt P10275); test: Keratinocyte AR luciferase reporter gene assay (Example 10); assay type: cell-based; conditions: 24 h, read-out: Gene Activity Reduction
T2 construct: human keratinocytes transfected with an AR luciferase reporter gene; endogenous in cells; host or cells: normal human adult primary epidermal keratinocytes (ATCC PCS-200-011)
T2 sequence (P10275 1-920): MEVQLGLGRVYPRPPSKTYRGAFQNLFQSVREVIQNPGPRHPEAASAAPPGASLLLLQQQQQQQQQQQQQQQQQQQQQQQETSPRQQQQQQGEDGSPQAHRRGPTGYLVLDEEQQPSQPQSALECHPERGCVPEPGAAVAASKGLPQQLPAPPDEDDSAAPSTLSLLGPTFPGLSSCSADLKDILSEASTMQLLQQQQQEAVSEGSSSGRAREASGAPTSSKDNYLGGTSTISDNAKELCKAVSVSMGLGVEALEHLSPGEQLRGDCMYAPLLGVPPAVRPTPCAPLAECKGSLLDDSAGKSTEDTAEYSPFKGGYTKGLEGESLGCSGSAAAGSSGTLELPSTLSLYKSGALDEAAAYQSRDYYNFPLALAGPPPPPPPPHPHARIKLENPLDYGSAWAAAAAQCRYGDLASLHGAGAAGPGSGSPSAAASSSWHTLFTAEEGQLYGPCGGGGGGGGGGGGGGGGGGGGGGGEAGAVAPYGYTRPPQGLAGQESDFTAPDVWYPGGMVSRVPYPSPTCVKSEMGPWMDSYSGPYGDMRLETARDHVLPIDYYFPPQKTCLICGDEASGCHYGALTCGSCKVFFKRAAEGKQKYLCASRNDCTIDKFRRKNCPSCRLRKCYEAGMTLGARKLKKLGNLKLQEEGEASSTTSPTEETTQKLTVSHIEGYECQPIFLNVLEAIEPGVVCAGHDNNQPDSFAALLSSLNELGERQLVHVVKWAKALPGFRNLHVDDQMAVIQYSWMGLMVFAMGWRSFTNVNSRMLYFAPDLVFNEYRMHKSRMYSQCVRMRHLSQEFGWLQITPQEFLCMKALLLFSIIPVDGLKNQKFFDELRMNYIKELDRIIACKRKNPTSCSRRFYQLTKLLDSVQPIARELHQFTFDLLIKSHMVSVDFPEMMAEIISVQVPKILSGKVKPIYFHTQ
Protocol: as §1, §2

androgen receptor (AR) [3] = target: T2, androgen receptor (AR); test: Keratinocyte AR protein level ELISA (Example 10); assay type: cell-based; conditions: 24 h, read-out: AR Reduction
Protocol: as §1
To assess levels of AR, an ELISA was performed.

androgen receptor (AR) [4] = target: T2, androgen receptor (AR); test: Keratinocyte AR Reporter Gene Assay, 24 and 72 hours continuous exposure (Example 12); assay type: cell-based; conditions: keratinocytes
Protocol: as §2
This example illustrates how to determine the inhibitory activity of an ARE disclosed herein using a cell-based androgen receptor transcriptional reporter assay using primary human keratinocytes.
Results were analyzed for IC50 and IC90 values in GraphPad Prism using a four-parameter logistic curve equation. Bottom constraints were set to 1 (level of uninduced control).

androgen receptor (AR) [5] = target: T2, androgen receptor (AR); test: Keratinocyte AR Reporter Gene Assay with washout (sustained effects); assay type: cell-based; conditions: 7.0 μM for 24 hours
Protocol: Reporter gene activity was measured following two days or three days of additional cell culture in the absence of AR antagonists. AR reporter gene activity reduction was calculated as follows: 1−(average signal (treatment group)/(average signal (treatment group, without drug, same washout period).

androgen receptor (AR) [6] = target: T1, androgen receptor (AR); test: MDA-kb2 Assay with 0.1 nM DHT (Example 13); assay type: cell-based
Protocol: as §2
To determine efficacy of a compound, a MDA-kb2 assay was performed as described in Example 10. The cells were treated with compounds for 24 hours prior to measurements of reporter gene activity. […] AR luciferase assay results were analyzed using GraphPad Prism using a four-parameter logistic curve equation. Bottom constraints were set at 1 (level of uninduced control.)

[7] = system: MDA-kb2 mammary gland breast cancer cell line; conditions: human, 24 h
Protocol: For the MDA-kb2 assay, MDA-kb2 mammary gland breast cancer cell line was maintained in L-15 media (Gibco) supplemented with 10% FBS, 100 U/mL penicillin, 100 μg/mL streptomycin, and 0.25 μg/mL amphotericin B at 37° C., without CO2. For experiments, cells were plated at 1.0×10^4 cells (50% confluence) per well in 100 μL of medium in 96-well plates. When cells were attached (after 6 hours), medium was removed and replaced with dosing medium containing 10% charcoal stripped FBS.
A 5α-Androstan-17β-ol-3-one (DHT) stock solution was prepared at 1,000× in ethanol. Each ARE tested was prepared in DMSO. Dosing medium was prepared at the time of treatment by serial diluting stock solution into medium. Ethanol concentrations in media never exceeded 0.1%. […] Negative control wells contained 100 μL medium/well with 1 μL of ethanol/mL of medium and an appropriate amount of DMSO. Each plate also contained 1.0 nM DHT with an ARE or without an ARE as a positive control. Cells were incubated 24 hours at 37° C. without CO2.
(§3) To assess for cell viability, cells were first visually examined under a phase-contrast microscope to record cell confluence, morphological changes, and presence of drug crystallization as well as to observe signs of cytotoxity such as, e.g., detachment, vacuolization, membrane degradation, or lack of phase brightness. After microscopic inspection, a Trypan Blue exclusion assay was performed to assess cell viability and cell number for each well. Each well was washed with 0.5 mL volume of PBS. 30 µL of Trypan Blue was added to each well for 5-10 minutes. Total cell number and total viable cell number will be counted from 1 number of fields per well, in triplicate.

[8] = system: normal Human Adult Primary Epidermal Keratinocyte cell line; conditions: 24 h
Protocol: For the Keratinocyte assay, normal Human Adult Primary Epidermal Keratinocyte cell line (ATCC PCS-200-011) was maintained in EPIUFE® Medium, with 60 μM calcium (Thermo MEPISOOCA) supplemented with Human Keratinocyte Growth Supplement, 100 U/mL penicillin, and 100 μg/mL streptomycin at 37° C. with 5% C02. For experiments, cells were seeded at 70% confluence per well in 100 μL of medium in 96-well plates. […] After 16 hours, medium was removed and replaced with dosing medium.
A 5α-Androstan-17β-ol-3-one (DHT) stock solution was prepared at 1,000× in ethanol. […] Dosing medium was prepared at the time of treatment by serial diluting stock solution into medium. Ethanol concentrations in media never exceeded 0.1%. […] Negative control wells contained 100 μL medium/well with 1 μL of ethanol/mL of medium and an appropriate amount of DMSO. Each plate also contained 1.0 nM DHT with an ARE or without an ARE as a positive control. Cells were incubated 24 hours at 37° C. without CO2.
as §3

[9] = system: normal Human Adult Primary Epidermal Keratinocyte cell line; conditions: 72 h
Protocol: For the Keratinocyte assay, normal Human Adult Primary Epidermal Keratinocyte cell line (ATCC PCS-200-011) was maintained in EPIUFE® Medium, with 60 μM calcium (Thermo MEPISOOCA) supplemented with Human Keratinocyte Growth Supplement, 100 U/mL penicillin, and 100 μg/mL streptomycin at 37° C. with 5% C02. For experiments, cells were seeded at 70% confluence per well in 100 μL of medium in 96-well plates. Reverse transfection was done on the cells using Lipofectamine 3000 (Life Technologies) with plasmids according to manufacturer's instructions. Briefly, 0.3 μL transfection reagent per 100 ng DNA were incubated with P3000 reagent and Opti-Mem prior to addition of cells. After 16 hours, medium was removed and replaced with dosing medium.
Each ARE tested was prepared in DMSO. Dosing medium was prepared at the time of treatment by serial diluting stock solution into medium. Ethanol concentrations in media never exceeded 0.1%. […] Negative control wells contained 100 L medium/well with 1 μL of ethanol/mL of medium and an appropriate amount of DMSO. […] Cells were incubated 72 hours at 37° C. without CO2.

Molecule `CC12CCC(=O)C=C1C[C@@H](SC(=O)CC13CC4CC(CC(C4)C1)C3)C1C2CCC2(C)C1CC[C@@]21CCC(=O)O1` (stereo partly drawn) [SPG-003] has an inhibition at 0.1 µM (androgen receptor (AR) [1]) of 8%, an inhibition at 1 µM (androgen receptor (AR) [1]) of 20% and an inhibition at 3 µM (androgen receptor (AR) [1]) of 40%. The inhibition at 10 µM (androgen receptor (AR) [1]) was 90%, the inhibition at 0.1 µM (androgen receptor (AR) [2]) was 21% and the inhibition at 1 µM (androgen receptor (AR) [2]) was 31%. For the same molecule, the inhibition at 3 µM (androgen receptor (AR) [2]) was 50%, the inhibition at 10 µM (androgen receptor (AR) [2]) was 93% and the inhibition at 0.1 µM (androgen receptor (AR) [3]) was 6%. The inhibition at 1 µM (androgen receptor (AR) [3]) was 19%, the inhibition at 3 µM (androgen receptor (AR) [3]) was 26% and the inhibition at 10 µM (androgen receptor (AR) [3]) was 65%. For the same molecule, the IC50 (androgen receptor (AR) [4]; 24-hr Treatment) was 3.68 µM, the IC90 (androgen receptor (AR) [4]; 24-hr Treatment) was 6.96 µM and the “Maximum Inhibition” value (androgen receptor (AR) [4]; 24-hr Treatment) was 91%. The IC50 (androgen receptor (AR) [4]; 24-hr treatment) was 3.7 µM, the IC90 (androgen receptor (AR) [4]; 24-hr treatment) was 7 µM and the IC50 (androgen receptor (AR) [4]; 72-hour treatment) was 2.5 µM. The IC90 (androgen receptor (AR) [4]; 72-hour treatment) was 5.7 µM, the IC50 (androgen receptor (AR) [4]; 72-hr Treatment) was 2.57 µM and the IC90 (androgen receptor (AR) [4]; 72-hr Treatment) was 5.68 µM. For the same molecule, the “Maximum Inhibition” value (androgen receptor (AR) [4]; 72-hr Treatment) was 93%, the “inhibition of AR reporter gene activity (in words)” value (androgen receptor (AR) [4]; 24 and 72 hours) was “dose-dependent inhibition” and the “AR reporter gene activity reduction” value (androgen receptor (AR) [5]; Washout Period 0 days) was 89 ± 1.0%. For the same molecule, the “AR reporter gene activity reduction” value (androgen receptor (AR) [5]; Washout Period 2 days) was 64 ± 0.3%, the IC50 (androgen receptor (AR) [6]; MDA-kb2, 0.1 nM DHT, 24 hours) was 0.789 µM and the IC90 (androgen receptor (AR) [6]; MDA-kb2, 0.1 nM DHT, 24 hours) was 2.71 µM. For the same molecule, the “Maximum Inhibition” value (androgen receptor (AR) [6]; MDA-kb2, 0.1 nM DHT, 24 hours) was 95%, the “dose-dependent inhibition of AR reporter gene activity (in words)” value (androgen receptor (AR) [6]; MDA-kb2, reduced DHT levels (0.1 nM)) was “dose-dependent inhibition” and the “Cell Viability” value ([7]; 0.1 μM) was 98%. For the same molecule, the “Cell Viability” value ([7]; 1 μM) was 99%, the “Cell Viability” value ([7]; 3 μM) was 98% and the “Cell Viability” value ([7]; 10 μM) was 98%. The “Cell Viability” value ([8]; 0.1 μM) was 93%, the “Cell Viability” value ([8]; 1 μM) was 93% and the “Cell Viability” value ([8]; 3 μM) was 94%. For the same molecule, the “Cell Viability” value ([8]; 10 μM) was 93%, the “Cell Viability” value ([9]; 0.62 μM) was 92.16 ± 1.30 and the “Cell Viability” value ([9]; 1.85 μM) was 73.46 ± 1.11. The “Cell Viability” value ([9]; 5.56 μM) was 66.12 ± 3.09, the “Cell Viability” value ([9]; 16.67 μM) was 55.11 ± 0.16 and the “Cell Viability” value ([9]; 50 μM) was 38.67 ± 2.25.
